Results: patent US6787564B2, “Optically active clausenamides, process of the preparation thereof, pharmaceutical composition containing the same and their medical use” (Institute of Materia Medica, Chinese Academy of Medical …, priority 2002, dated 2004)

What was measured:
mGlu receptor = experiment: effect of mGlu antagonist on LTP in hippocampal DG in vivo; design: species or system rats
Source text: (§1) The rats were anaesthetized with urethane carbonate.
3. Glutamate, the most abundant excitatory neurotransmitter in the CNS, released from presynaptic site and activated a variety of postsynaptic receptor, and then potentiated synaptic transmission. mGlu R (metabotropic glutamate receptor) indirectly regulates signaling and activats various second messenger cascades.

calpain = calpain activity in the cortical and hippocampal tissue; assay type: in vivo, rats; conditions: without HFS, Nimodipine 2 nmol, mean ± S.D., n = 5; for calpain activity, Cortical tissue: control 1.5 ± 0.2; for calpain activity, Hippocampal tissue: control 1.7 ± 0.5
Source text: as §1

calcineurin = calcineurin activity in the cortical and hippocampal tissue; conditions: without HFS; Nimodipine 2 nmol; mean ± S.D., n = 5; control 7.8 ± 0.6
Source text: The rats were anaesthetized with urethane carbonate. The recording and stimulating electrodes were made from Teflon coated stainless steel wires. The bipolar stimulating electrode was sterotaxically placed in the entorhinal cortex to stimulate the perforant path, and the evoked potential was extracellular recorded from the dentate gyrus granule cell layer of ipsilateral. The population spike (PS) is served as an indication of granule cell's excitation. Long term potentiation (LTP) was induced by a 200 Hz high frequency stimulation 5×single square wave pulses of 0.2 ms duration. The drug or vehicle (DMSO) were injected into lateral cerebral ventricle in a 5 μl volume over a 5 min period via a Hamilton syringe.

[1] = system: β-AP (25-35)-treated rats; experiment: one trial passive avoidance of β-AP (25-35)-treated rats; assay type: in vivo
A β 25-35 treated rats = experiment: Morris water maze, A β 25-35 induced impairment of memory; assay type: in vivo; conditions: for initial heading angle on the 3th day (in words): (−),(+) clausenamide 8 and 40 mg.kg^−1, piracetam 400 mg·kg^−1; for initial heading angle on the 3th day (in words) / latency for finding the platform, 3th to 5th day: vs A β group; for latency for finding the platform, 3th to 5th day: (−),(+) clausenamide 8 and 40 mg·kg^−1, piracetam 400 mg.kg^−1
Source text: Pathological features of Alzheimer's disease (AD) include extensive neuronal loss and the presence of numerous neurofibrillary tangles and senile plaques in the brain. The senile plaques contain amyloid fibrils derived from a 39-43 amino acids peptide referred to as β-amyloid or A β which can produce neurotoxicity. A β 25-35 poccesses the similar neurotoxicity and ability of self-aggregation as A β 1-42. Administrated aggregated A β 25-35 into rat's lateral cerebral ventricle induced memory impairment in Morris water maze.
With increasing of training days, the initial heading angle became small. On the 3th day, the initial heading angle of A β group was larger than control. […] (see Tab.3)
There are four strategies for finding platform in Morris water maze: random, circle, taxis and line. In the beginning of training the search strategies for finding target is mainly circle and random, with the increasing of training, the percentage of the two strategies declined gradually, Beginning from the 3th day, declining speed in control and (−) clausenamide group was faster than A β,(+) clausenamide and piracetam groups.

[2] = system: animals with anisodine-induced memory impairment; experiment: step-through test, memory impairment induced by anisodine; assay type: in vivo; conditions: 500 mg/kg oral once
Source text: (§2) This invention used one trial avoidance task—step-down and step-through tests and water maze to compare the improving memorial effects of (±), (−) clausenamide. The drugs were given orally once to animals before experiment in step-down and step-through tests. The water maze test lasted for 5 days in succession. The results were expressed as latency and errors number.

[3] = system: animals with anisodine-induced memory impairment; experiment: step-down test, memory impairment induced by anisodine; assay type: in vivo; conditions: 500 mg/kg oral once
Source text: as §2

animals [4] = experiment: memory in water maze test; assay type: in vivo; conditions: 500 mg/kg
Source text: as §2

[5] = system: animals with anisodine-induced memory impairment; experiment: memory impairment induced by anisodine in water maze test; assay type: in vivo; conditions: anisodine + drug 500 mg/kg
Source text: as §2

animals [6] = experiment: nootropic action overall: step-down, step-through and water maze tests; assay type: in vivo; conditions: oral; Tab.4 to Tab.7
Method: This invention used one trial avoidance task—step-down and step-through tests and water maze to compare the improving memorial effects of (±), (−) clausenamide.
The drugs were given orally once to animals before experiment in step-down and step-through tests. The water maze test lasted for 5 days in succession. The results were expressed as latency and errors number.
The effective dose of piracetam was 500 mg.kg^−1.

rats = experiment: mossy fiber sprouting in fascia dentata and hippocampal CA3 region; assay type: in vivo; conditions: 8 and 40 mg·kg^−1 orally daily for 10 days; adult rat
Source text: 2. […] This is morphological basis for levoclausenamide to incnease synaptic transmission (see FIGS. 1 and 2).

BDNF = BDNF protein expression in cortical neurons and hippocampal pyramide cells; assay type: in vivo, rats; conditions: 8, 40 mg·kg^−1 orally daily for 10 days
[7] = system: dentate gyrus granule cells; experiment: basal synaptic transmission / LTP in dentate gyrus of hippocampus in anesthetized rats (population spike amplitude); assay type: in vivo; conditions: icv
Source text: Drugs or vehicle injection were delivered via cannula in the lateral cerebral ventricle at final concentration of 2×10^−6 mol/L. The population spike (PS) amplitude was employed as an indication of the level of excitation of the granular cell population in the dentate gyrus. To obtain this measurement, an evoked response was generated in the dentate gyrus granule cell layer by stimulating the pp at low freguency (0.033 Hz) with. single square wave pulses of 0.15 ms duration The LTP formation must accord the following creteria: The PS amplitude increased is over 30% and this high PS amplitude can persist for 40 min.

[8] = system: dentate gyrus of hippocampus; experiment: induction of LTP in hippocampal of rat (population spike amplitude); assay type: in vivo, SD rats; conditions: I.C.V.; means ± SD
Source text: Adult male SD rats were anesthetized to maintain a surgical level. A stainless steel cannula-recording electrode was placed in DG (dentate gyrus) of hippocampus using a stereotaxic instrument. The combination of cannula-recording electrode was constructed by insulating the outside of the cannula, except at the tip and top. In the top noninsulated area, a stainless steel wire was wrapped around the cannula and connected to the amplifier via an amphenol connector. The four pairs optically active clausenamides shown in table 9 was delivered by I.C.V. Responses were evoked via direct stimulation of the performant path (PP) using a stainless steel bipolar stimulating electrode. Constant current stimulation provided by a stimulator was delivered to the stimulating electrode through a Stimulus Isolation Unit.
The stimulating electrode was adjusted until a characteristic EPSP was observed under constant current. The evoked responses were amplified on a series alternating current preamplifier, using a microcomputer, and then stored for off-line analysis using DataWave software. The current intensity that elicited a 50% maximal response in each animal was determined and used for all subsequent stimulation. To measure treatment effects, responses were evoked once every 30 sec throughout the entire experiment, and population spike amplitude(PSA) were calculated.

[9] = β-AP-treated + drug 400 mg/kg, n = 8
[10] = β-AP-treated + drug 8 mg/kg, n = 9
[11] = β-AP-treated + drug 40 mg/kg, n = 9

Compound: CC(N)(C(=O)O)c1ccc(C(=O)O)cc1 (racemic) [(±) MCPG, (±)-α-methyl-4-carboxyphenylglycine]
- induction of LTP induced by HFS and levoclausenamide (mGlu receptor; 10 μmol, icv): inhibited the induction of LTP
- established LTP (mGlu receptor; given 15 min after HFS or levoclausenamide): reversed the established LTP

Compound: NC(CCCP(=O)(O)O)C(=O)O (stereo not shown) [AP5]
- calpain activity, Cortical tissue (calpain): 1.6 ± 0.4 ΔA595nm/hr/mg protein
- calpain activity, Hippocampal tissue (calpain): 1.6 ± 0.6 ΔA595nm/hr/mg protein
- calcineurin activity, Hippocampal tissue (calcineurin): 8.1 ± 0.7 (μmol Pi)/hr/μ g protein

Compound: COCCOC(=O)C1=C(C)NC(C)=C(C(=O)OC(C)C)C1c1cccc([N+](=O)[O-])c1 (stereo not shown) [Nimodipine]
- calpain activity, Cortical tissue (calpain): 1.7 ± 0.3 ΔA595nm/hr/mg protein
- calpain activity, Hippocampal tissue (calpain): 1.8 ± 0.5 ΔA595nm/hr/mg protein
- calcineurin activity, Hippocampal tissue (calcineurin): 7.7 ± 0.8 (μmol Pi)/hr/μ g protein

Compound: NC(=O)CN1CCCC1=O [Piracetam, 2-oxo-1 pyrolidine acetamide]
- Number of error, Acquisition [1, 9]: 1.6 ± 0.26
- Number of error, Training [1, 9]: 4.1 ± 1.14
- initial heading angle on the 3th day (in words) (A β 25-35 treated rats): showed no improving effects
- latency for finding the platform, 3th to 5th day (A β 25-35 treated rats): showed no effect
- initial heading angle, training day 1 (A β 25-35 treated rats; A β 25-35 + drug at 400 mg/kg): 92.5 ± 28.9
- initial heading angle, training day 2 (A β 25-35 treated rats; A β 25-35 + drug at 400 mg/kg): 87.3 ± 24.2
- initial heading angle, training day 3 (A β 25-35 treated rats; A β 25-35 + drug at 400 mg/kg): 74.6 ± 23.7
- initial heading angle, training day 4 (A β 25-35 treated rats; A β 25-35 + drug at 400 mg/kg): 62.5 ± 19.6
- initial heading angle, training day 5 (A β 25-35 treated rats; A β 25-35 + drug at 400 mg/kg): 44.5 ± 14.3
- Latencies, Step-through ([2]; 0.9% Nacl + anisodine 24.4 ± 59): 107 ± 110 s
- Error number, Step-through ([2]; N = 10, X ± SD, 0.9% Nacl + anisodine 12.7 ± 4.6): 4.1 ± 3.2
- Error number, Step-down ([3]; 0.9% Nacl + anisodine 0.9 ± 1.0): 0.7 ± 0.5
- Latencies, Step-down ([3]; 0.9% Nacl + anisodine 184 ± 105): 180 ± 110 s
- Lalencies reaching platform, 3rd day (animals [4]; 0.9% Nacl 25.8 ± 18.4): 18.6 ± 9.9 s
- Lalencies reaching platform, 4th day (animals [4]; 0.9% Nacl 26.1 ± 38.4): 16.7 ± 16.3 s
- Lalencies reaching platform, Second day (animals [4]; N = 10, X ± S.D., 0.9% Nacl 32.4 ± 29.2): 32.2 ± 22.6 s
- Errors number [5]: 23.5 ± 25.0
- effective dose of piracetam (comparator) (animals [6]): 500 mg/kg

Compound: (+) clausenamide [reference compound]
- mossy fiber sprouting in the fascia dentate and stratum lucidum (rats): no significant effect
- BDNF protein expression in the cortical neurons and pyramide cells in the hippocampus (BDNF): slightly increasing effect only at a dose of 40 mg·kg^−1
- Number of error, Acquisition [1, 10]: 0.8 ± 0.38
- Number of error, Training [1, 10]: 3.3 ± 0.42
- Number of error, Acquisition [1, 11]: 1.1 ± 0.19
- Number of error, Training [1, 11]: 3.9 ± 2.3
- initial heading angle on the 3th day (in words) (A β 25-35 treated rats): showed no improving effects
- latency for finding the platform, 3th to 5th day (A β 25-35 treated rats): showed no effect
- initial heading angle, training day 1 (A β 25-35 treated rats; A β 25-35 + drug at 8 mg/kg): 99.4 ± 31.7
- initial heading angle, training day 2 (A β 25-35 treated rats; A β 25-35 + drug at 8 mg/kg): 93.5 ± 29.6
- initial heading angle, training day 3 (A β 25-35 treated rats; A β 25-35 + drug at 8 mg/kg): 82.1 ± 26.7
- initial heading angle, training day 4 (A β 25-35 treated rats; A β 25-35 + drug at 8 mg/kg): 70.2 ± 21.5
- initial heading angle, training day 5 (A β 25-35 treated rats; A β 25-35 + drug at 8 mg/kg): 59.2 ± 18.3
- initial heading angle, training day 1 (A β 25-35 treated rats; A β 25-35 + drug at 40 mg/kg): 112.4 ± 32.8
- initial heading angle, training day 2 (A β 25-35 treated rats; A β 25-35 + drug at 40 mg/kg): 102.5 ± 28.7
- initial heading angle, training day 3 (A β 25-35 treated rats; A β 25-35 + drug at 40 mg/kg): 84.2 ± 22.5
- initial heading angle, training day 4 (A β 25-35 treated rats; A β 25-35 + drug at 40 mg/kg): 83.1 ± 26.5
- initial heading angle, training day 5 (A β 25-35 treated rats; A β 25-35 + drug at 40 mg/kg): 65.4 ± 20.8
- PS % at 15′, in comparison with control (vehicle) group ([7]; 2×10^−6 mol/L): −2.7%
- PS % at 30′, in comparison with before drug ([7]; 2×10^−6 mol/L): −5.9%
- PS % at 30′, in comparison with control (vehicle) group ([7]; 2×10^−6 mol/L): −12.0%
- PS % at 45′, in comparison with before drug ([7]; 2×10^−6 mol/L): −12.9%
- PS % at 45′, in comparison with control (vehicle) group ([7]; 2×10^−6 mol/L): −20.0%
- PS % at 60′, in comparison with before drug ([7]; 2×10^−6 mol/L): −14.9%
- PS % at 60′, in comparison with control (vehicle) group ([7]; 2×10^−6 mol/L): −23.2%
- PS amplitude 30′ after drug ([7]; 2×10^−6 mol/L, control 108 ± 7): 95 ± 9
- PS amplitude 45′ after drug ([7]; 2×10^−6 mol/L, control 110 ± 10): 88 ± 15
- PS amplitude 60′ after drug ([7]; 2×10^−6 mol/L, control 112 ± 7): 86 ± 18
- PS amplitude 15′ after drug ([7]; final concentration 2×10^−6 mol/L, control 110 ± 9): 107 ± 8
- PSA (%), 15 min [8]: 90.6 ± 0.3%
- PSA (%), 30 min [8]: 110.1 ± 13.1%
- PSA (%), 60 min [8]: 106.4 ± 4.1%
